According to the CheMixHub drug solubility set:

Assay: xn = mol fraction of the nth substance listed, in the solute-free solvent

Cl.c1ccc2c(CC3=NCCN3)cccc2c1 + CO + CC(C)O
solubility (g/100 g solution)
Settings	278.15 K	283.15 K	288.15 K	293.15 K	298.15 K	303.15 K	308.15 K	313.15 K	318.15 K	323.15 K
x2 = 0.1724	0.41	0.484	0.577	0.695	0.819	1.01	1.16	1.42	1.62	1.85
x2 = 0.3192	0.793	0.94	1.05	1.29	1.46	1.74	2.05	2.38	2.74	3.14
x2 = 0.4456	1.3	1.58	1.8	2.14	2.45	2.88	3.31	3.94	4.53	5.08
x2 = 0.5556	1.91	2.41	2.82	3.29	3.8	4.3	5.07	6.02	6.76	7.78
x2 = 0.6522	2.34	2.72	3.12	3.71	4.22	4.92	5.63	6.51	7.33	8.47
x2 = 0.7377	2.88	3.52	4.25	5.06	5.99	6.93	7.8	8.95	10.2	11.5
x2 = 0.814	3.62	4.51	5.34	6.58	7.66	8.91	10.4	11.8	13.3	14.9
x2 = 0.8823	4.46	5.61	6.67	8.06	9.39	11	12.7	14.7	16.4	18.4
x2 = 0.944	5.43	6.55	7.62	9.25	10.7	12.9	15	17.3	19.4	21.8

Cl.c1ccc2c(CC3=NCCN3)cccc2c1 + CO + CCO
solubility (g/100 g solution)
Settings	278.15 K	283.15 K	288.15 K	293.15 K	298.15 K	303.15 K	308.15 K	313.15 K	318.15 K	323.15 K
x2 = 0.1377	2.14	2.61	3.11	3.69	4.45	5.14	5.88	6.74	7.61	8.5
x2 = 0.2644	3.05	3.54	3.96	4.7	5.27	6.18	7.06	8.2	9.28	10.6
x2 = 0.3812	3.8	4.39	5.05	5.74	6.63	7.58	8.73	9.78	11.4	12.7
x2 = 0.4894	4.21	4.86	5.45	6.36	7.17	8	9.31	10.4	11.9	13.2
x2 = 0.5898	4.47	5.59	6.2	7.21	8.02	9.29	10.6	11.7	13.2	14.6
x2 = 0.6832	4.86	5.8	6.77	7.78	8.82	10	11.3	12.8	14.4	16.1
x2 = 0.7704	5.03	6.14	7.26	8.67	10.3	11.5	13.1	14.6	16.2	18.3
x2 = 0.8519	5.48	6.63	7.79	9.34	11	13.3	14.8	16.8	18.5	20.5
x2 = 0.9283	5.66	6.83	8.15	9.82	11.7	14	15.7	18	19.9	21.9

Cl.c1ccc2c(CC3=NCCN3)cccc2c1 + CO + CCOC(C)=O
solubility (g/100 g solution)
Settings	278.15 K	283.15 K	288.15 K	293.15 K	298.15 K	303.15 K	308.15 K	313.15 K	318.15 K	323.15 K
x2 = 0.234	0.0388	0.0424	0.0488	0.0564	0.0653	0.0746	0.0856	0.0943	0.107	0.124
x2 = 0.4074	0.414	0.448	0.483	0.536	0.585	0.641	0.701	0.757	0.832	0.9
x2 = 0.5409	1.28	1.46	1.64	1.85	2.05	2.3	2.54	2.8	3.09	3.43
x2 = 0.647	2.35	2.79	3.18	3.62	4.14	4.79	5.44	6	6.94	7.75
x2 = 0.7342	2.92	3.55	4.1	4.91	5.54	6.21	7.05	7.84	8.87	9.75
x2 = 0.8048	4.02	4.75	5.56	6.6	7.64	8.62	10.1	11.2	12.5	14
x2 = 0.8651	4.96	5.72	6.88	8.2	9.51	11.3	12.9	14.3	15.7	17.4
x2 = 0.9166	5.87	6.98	8.13	9.66	11.2	13.1	15	17.1	19	20.8
x2 = 0.9612	6.37	7.47	8.84	10.6	12.3	14.4	16.6	18.9	21.1	23.5

O=CC(O)C(O)C(O)CO (centres undefined) + CO + ClCCl
solubility (g/100 g solution)
Settings	x2 = 0.1	x2 = 0.2	x2 = 0.3	x2 = 0.4	x2 = 0.5	x2 = 0.6	x2 = 0.7	x2 = 0.8	x2 = 0.9
283.15 K	0.097	0.564	1.19	1.64	2.52	3.8	4.89	6.81	9.89
288.15 K	0.17	0.673	1.33	1.81	2.86	4.63	5.87	8.86	12.6
293.15 K	0.204	0.696	1.5	2.4	3.52	5.59	7.17	10.8	15.8
298.15 K	0.281	0.774	1.78	2.73	4.3	6.87	9.1	13.4	20.1
303.15 K	0.286	0.82	2.17	3.22	5.29	9.18	12.7	18.3	25.3

CCc1cccc2c3c([nH]c12)C(CC)(CC(=O)O)OCC3 (centres undefined) + COC(C)=O + CCCCCC
solubility (g/100 g solution)
Settings	278.15 K	283.15 K	288.15 K	293.15 K	298.15 K	303.15 K	308.15 K	313.15 K	318.15 K	323.15 K
x2 = 0.2255	1.11	1.18	1.26	1.35	1.42	1.5	1.61	1.69	1.76	1.86
x2 = 0.4369	3.55	3.98	4.43	4.96	5.39	5.87	6.35	6.88	7.34	7.96
x2 = 0.6357	4.26	5.33	6.41	7.66	8.86	9.93	11.4	12.9	14.1	15.7
x2 = 0.8229	10.8	12.1	13.6	15.1	16.7	18.3	20.2	22.4	24.4	26

Cl.c1ccc2c(CC3=NCCN3)cccc2c1 + COCCO + CC(C)O
solubility (g/100 g solution)
Settings	278.15 K	283.15 K	288.15 K	293.15 K	298.15 K	303.15 K	308.15 K	313.15 K	318.15 K	323.15 K
x2 = 0.08067	0.345	0.391	0.44	0.493	0.56	0.628	0.702	0.778	0.867	0.926
x2 = 0.1649	0.526	0.602	0.687	0.775	0.873	0.969	1.09	1.19	1.32	1.42
x2 = 0.2529	0.638	0.792	0.944	1.03	1.25	1.45	1.56	1.82	1.98	2.32
x2 = 0.3449	0.753	0.926	1.09	1.32	1.53	1.8	2.05	2.36	2.58	2.87
x2 = 0.4412	1.03	1.18	1.29	1.51	1.68	1.89	2.09	2.36	2.6	2.87
x2 = 0.5422	1.45	1.58	1.73	1.92	2.17	2.43	2.69	2.97	3.24	3.61
x2 = 0.6482	1.84	2.01	2.28	2.46	2.77	2.98	3.37	3.59	3.82	4.19
x2 = 0.7595	2.35	2.52	2.78	3.06	3.34	3.67	4.04	4.45	4.93	5.36
x2 = 0.8767	2.49	2.71	3.03	3.29	3.7	3.95	4.34	4.64	4.96	5.33

Cl.NC(C=O)C(O)C(O)C(O)CO (centres undefined) + O + CCO
solubility (g/100 g solution)
Settings	283.15 K	288.15 K	293.15 K	298.15 K	303.15 K	308.15 K	313.15 K	318.15 K	323.15 K
x2 = 0.4	0.614	0.658	0.736	0.832	0.899	0.944	1.08	1.18	1.27
x2 = 0.5	1.17	1.37	1.55	1.68	1.79	2.1	2.32	2.52	2.83
x2 = 0.6	2.21	2.56	2.9	3.34	3.6	3.91	4.59	4.86	5.43
x2 = 0.7	3.86	4.61	5.18	5.66	6.46	7.67	8.39	9.2	10.5
x2 = 0.8	6.88	7.72	8.59	9.69	10.7	11.8	13.1	14.6	16.1
x2 = 0.9	12.3	13.1	14.5	16.1	17.4	19	20.6	22.3	23.9

Cl.NC(C=O)C(O)C(O)C(O)CO (centres undefined) + O + CO
solubility (g/100 g solution)
Settings	283.15 K	288.15 K	293.15 K	298.15 K	303.15 K	308.15 K	313.15 K	318.15 K	323.15 K
x2 = 0.2	0.992	1.03	1.13	1.23	1.35	1.48	1.55	1.7	1.83
x2 = 0.4	2.16	2.53	2.73	2.95	3.19	3.51	3.82	4.32	4.72
x2 = 0.6	4.73	5.53	6	6.76	7.4	8.23	9.01	10	10.9
x2 = 0.8	10.2	11.5	12.8	13.9	15.2	16.7	18.1	19.7	21.3
x2 = 0.9	15.2	16.6	18	19.7	21	22.9	24.2	25.8	27.9
